From publication PMC7206119, “RIP1 inhibition blocks inflammatory diseases but not tumor growth or metastases” (Cell Death and Differentiation, 2019)

How the values were obtained:
Experiment in all cases: biochemical
Design in all cases: DiscoverX kinase panel, active-site competition binding (KINOMEscan type), percent of control at one concentration
Conditions in all cases: competition binding, percent of control
[1] = molecular target: T1, JAK2(JH1domain-catalytic) (Homo sapiens, UniProt O60674)
T1 construct: JH1domain-catalytic

[2] = molecular target: TYRO3 (Homo sapiens, UniProt Q06418)
TYRO3, sequence (Q06418 whole entry): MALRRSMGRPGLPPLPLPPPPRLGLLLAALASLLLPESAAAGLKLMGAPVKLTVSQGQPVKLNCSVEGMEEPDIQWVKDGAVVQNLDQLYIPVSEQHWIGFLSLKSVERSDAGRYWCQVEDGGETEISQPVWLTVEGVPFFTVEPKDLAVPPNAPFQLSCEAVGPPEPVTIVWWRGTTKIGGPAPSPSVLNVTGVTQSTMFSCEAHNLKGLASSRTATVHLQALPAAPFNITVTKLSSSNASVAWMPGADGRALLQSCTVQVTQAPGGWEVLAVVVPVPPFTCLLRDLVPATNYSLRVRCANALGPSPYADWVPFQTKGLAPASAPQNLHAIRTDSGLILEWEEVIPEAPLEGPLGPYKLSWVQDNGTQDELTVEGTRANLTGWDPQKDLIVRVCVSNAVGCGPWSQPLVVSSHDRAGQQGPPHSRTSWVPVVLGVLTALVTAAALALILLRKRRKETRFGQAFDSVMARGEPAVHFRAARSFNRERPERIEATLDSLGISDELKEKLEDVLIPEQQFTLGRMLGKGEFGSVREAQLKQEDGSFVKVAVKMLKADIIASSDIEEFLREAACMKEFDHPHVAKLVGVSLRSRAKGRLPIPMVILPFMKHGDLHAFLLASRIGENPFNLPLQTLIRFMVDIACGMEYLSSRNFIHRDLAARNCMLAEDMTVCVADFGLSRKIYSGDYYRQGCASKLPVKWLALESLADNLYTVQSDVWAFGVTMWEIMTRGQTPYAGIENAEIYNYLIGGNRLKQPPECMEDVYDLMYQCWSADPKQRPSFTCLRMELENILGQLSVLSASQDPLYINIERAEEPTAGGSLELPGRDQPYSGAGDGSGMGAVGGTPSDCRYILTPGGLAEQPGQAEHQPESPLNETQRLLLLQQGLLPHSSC

[3] = molecular target: T2, JAK3(JH1domain-catalytic) (Homo sapiens, UniProt P52333)
T2 construct: JH1domain-catalytic

[4] = molecular target: PDPK1 (Homo sapiens, UniProt O15530)
[5] = molecular target: EGFR(E746-A750del) (Homo sapiens, UniProt P00533, DEL746-750)
[6] = molecular target: CSNK1G1 (Homo sapiens, UniProt Q9HCP0)
CSNK1G1, sequence (Q9HCP0 whole entry): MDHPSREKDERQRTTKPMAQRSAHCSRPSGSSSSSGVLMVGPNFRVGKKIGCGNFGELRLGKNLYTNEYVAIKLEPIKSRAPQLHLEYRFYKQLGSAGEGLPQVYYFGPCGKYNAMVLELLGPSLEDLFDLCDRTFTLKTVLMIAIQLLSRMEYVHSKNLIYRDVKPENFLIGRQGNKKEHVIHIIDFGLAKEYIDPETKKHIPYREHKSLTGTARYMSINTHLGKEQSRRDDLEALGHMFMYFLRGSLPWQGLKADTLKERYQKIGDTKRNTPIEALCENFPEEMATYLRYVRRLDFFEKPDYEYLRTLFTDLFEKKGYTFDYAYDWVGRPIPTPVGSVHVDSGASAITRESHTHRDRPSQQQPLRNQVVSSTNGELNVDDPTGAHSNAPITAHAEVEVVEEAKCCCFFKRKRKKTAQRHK

[7] = molecular target: MAP3K15 (Homo sapiens, UniProt Q6ZN16)
MAP3K15, sequence (Q6ZN16 whole entry): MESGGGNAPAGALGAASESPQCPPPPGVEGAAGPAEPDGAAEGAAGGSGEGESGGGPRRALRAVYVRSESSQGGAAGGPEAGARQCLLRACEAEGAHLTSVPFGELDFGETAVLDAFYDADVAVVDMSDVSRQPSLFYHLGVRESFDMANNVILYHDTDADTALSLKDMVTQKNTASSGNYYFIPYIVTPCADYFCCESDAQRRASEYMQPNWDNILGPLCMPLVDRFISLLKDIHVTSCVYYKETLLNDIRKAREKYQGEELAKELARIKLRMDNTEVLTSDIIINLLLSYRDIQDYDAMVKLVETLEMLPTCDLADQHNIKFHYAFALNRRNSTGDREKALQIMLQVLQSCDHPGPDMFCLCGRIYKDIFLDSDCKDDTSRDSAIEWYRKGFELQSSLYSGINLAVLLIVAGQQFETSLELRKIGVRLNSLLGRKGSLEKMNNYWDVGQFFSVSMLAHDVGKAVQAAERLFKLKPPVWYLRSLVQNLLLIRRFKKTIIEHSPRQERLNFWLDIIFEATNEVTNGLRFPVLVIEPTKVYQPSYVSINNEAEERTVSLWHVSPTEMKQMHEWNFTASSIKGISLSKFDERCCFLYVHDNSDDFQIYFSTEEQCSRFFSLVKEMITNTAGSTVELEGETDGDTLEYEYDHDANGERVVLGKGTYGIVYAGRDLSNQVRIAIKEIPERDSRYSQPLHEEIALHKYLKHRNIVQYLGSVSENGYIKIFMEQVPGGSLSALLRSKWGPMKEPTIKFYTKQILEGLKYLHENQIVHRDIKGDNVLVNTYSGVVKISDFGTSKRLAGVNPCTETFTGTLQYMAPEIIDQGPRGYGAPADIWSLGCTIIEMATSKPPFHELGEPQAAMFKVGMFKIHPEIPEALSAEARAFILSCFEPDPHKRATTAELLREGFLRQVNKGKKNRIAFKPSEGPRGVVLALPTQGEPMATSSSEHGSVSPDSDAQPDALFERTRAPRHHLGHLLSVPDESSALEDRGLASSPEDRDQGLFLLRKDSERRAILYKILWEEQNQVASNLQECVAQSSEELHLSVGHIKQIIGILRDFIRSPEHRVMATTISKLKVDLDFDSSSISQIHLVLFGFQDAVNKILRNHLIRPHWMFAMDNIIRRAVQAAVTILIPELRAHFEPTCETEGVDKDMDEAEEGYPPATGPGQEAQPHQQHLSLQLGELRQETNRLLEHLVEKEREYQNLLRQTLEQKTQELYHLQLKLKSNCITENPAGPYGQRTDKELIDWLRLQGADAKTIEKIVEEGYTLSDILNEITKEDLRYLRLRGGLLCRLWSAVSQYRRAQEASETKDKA

[8] = molecular target: T3, ABL1(Y253F)-phosphorylated (Homo sapiens, UniProt P00519, Y253F)
T3 construct: phosphorylated

[9] = molecular target: PIK3CA(C420R) (Homo sapiens, UniProt P42336, C420R)
[10] = molecular target: T4, AMPK-alpha1 (Homo sapiens, UniProt Q13131)
T4 construct: gene PRKAA1
T4 sequence (Q13131 whole entry): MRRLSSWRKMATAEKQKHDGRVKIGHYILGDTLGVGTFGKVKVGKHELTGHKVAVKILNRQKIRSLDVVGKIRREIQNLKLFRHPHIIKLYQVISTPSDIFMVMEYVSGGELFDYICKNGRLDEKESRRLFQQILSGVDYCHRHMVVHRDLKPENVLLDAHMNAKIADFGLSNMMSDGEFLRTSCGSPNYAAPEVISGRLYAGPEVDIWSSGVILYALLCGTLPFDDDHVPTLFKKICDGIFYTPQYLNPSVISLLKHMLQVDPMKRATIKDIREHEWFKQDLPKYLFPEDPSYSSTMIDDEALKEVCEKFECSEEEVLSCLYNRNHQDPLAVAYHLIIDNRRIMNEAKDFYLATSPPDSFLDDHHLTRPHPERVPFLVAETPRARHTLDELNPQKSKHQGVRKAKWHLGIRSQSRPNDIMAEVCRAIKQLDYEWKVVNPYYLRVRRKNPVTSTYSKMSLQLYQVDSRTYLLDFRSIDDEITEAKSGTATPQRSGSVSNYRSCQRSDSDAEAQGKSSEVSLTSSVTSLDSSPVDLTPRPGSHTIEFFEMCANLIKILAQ

[11] = molecular target: RIPK2 (Homo sapiens, UniProt O43353)
RIPK2, sequence (O43353 whole entry): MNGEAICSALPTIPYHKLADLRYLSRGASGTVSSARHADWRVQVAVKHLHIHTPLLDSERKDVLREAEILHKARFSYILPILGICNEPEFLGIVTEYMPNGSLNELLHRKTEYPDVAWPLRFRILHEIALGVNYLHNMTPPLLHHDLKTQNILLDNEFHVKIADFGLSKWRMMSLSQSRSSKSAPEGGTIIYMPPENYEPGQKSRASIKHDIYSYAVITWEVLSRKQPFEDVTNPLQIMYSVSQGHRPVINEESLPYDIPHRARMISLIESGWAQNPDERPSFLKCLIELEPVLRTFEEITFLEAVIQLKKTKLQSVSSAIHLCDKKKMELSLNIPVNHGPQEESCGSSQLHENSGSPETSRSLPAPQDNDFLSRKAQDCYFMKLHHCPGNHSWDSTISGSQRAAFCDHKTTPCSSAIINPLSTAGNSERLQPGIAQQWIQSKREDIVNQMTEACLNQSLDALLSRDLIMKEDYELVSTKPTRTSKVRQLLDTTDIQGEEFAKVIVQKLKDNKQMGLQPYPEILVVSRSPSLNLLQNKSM

[12] = molecular target: T5, MEK1 (Homo sapiens, UniProt Q02750)
T5 construct: gene MAP2K1
T5 sequence (Q02750 whole entry): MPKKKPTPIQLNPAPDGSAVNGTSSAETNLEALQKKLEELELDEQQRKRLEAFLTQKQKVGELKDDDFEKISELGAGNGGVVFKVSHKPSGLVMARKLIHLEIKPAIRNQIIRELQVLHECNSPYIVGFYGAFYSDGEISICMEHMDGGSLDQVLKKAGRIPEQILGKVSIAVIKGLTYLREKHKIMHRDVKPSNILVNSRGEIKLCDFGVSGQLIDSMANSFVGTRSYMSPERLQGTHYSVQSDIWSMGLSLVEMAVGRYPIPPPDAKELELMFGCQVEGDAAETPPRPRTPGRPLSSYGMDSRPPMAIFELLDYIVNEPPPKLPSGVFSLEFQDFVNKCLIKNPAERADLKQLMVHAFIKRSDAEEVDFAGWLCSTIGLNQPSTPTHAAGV

[13] = molecular target: ACVR1B (Homo sapiens, UniProt P36896)
[14] = molecular target: PHKG2 (Homo sapiens, UniProt P15735)
PHKG2, sequence (P15735 whole entry): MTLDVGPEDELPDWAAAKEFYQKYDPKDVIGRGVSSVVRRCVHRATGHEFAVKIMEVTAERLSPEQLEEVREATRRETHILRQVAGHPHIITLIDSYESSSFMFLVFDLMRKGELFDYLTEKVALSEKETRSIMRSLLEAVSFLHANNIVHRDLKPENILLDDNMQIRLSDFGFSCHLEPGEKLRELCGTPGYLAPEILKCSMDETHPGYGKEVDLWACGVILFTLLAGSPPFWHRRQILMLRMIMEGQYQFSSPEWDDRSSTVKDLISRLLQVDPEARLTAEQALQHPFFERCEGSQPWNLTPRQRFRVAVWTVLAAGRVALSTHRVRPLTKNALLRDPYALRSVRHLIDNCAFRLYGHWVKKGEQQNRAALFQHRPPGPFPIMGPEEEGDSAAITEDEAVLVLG

[15] = molecular target: PKMYT1 (Homo sapiens, UniProt Q99640)
PKMYT1, sequence (Q99640 whole entry): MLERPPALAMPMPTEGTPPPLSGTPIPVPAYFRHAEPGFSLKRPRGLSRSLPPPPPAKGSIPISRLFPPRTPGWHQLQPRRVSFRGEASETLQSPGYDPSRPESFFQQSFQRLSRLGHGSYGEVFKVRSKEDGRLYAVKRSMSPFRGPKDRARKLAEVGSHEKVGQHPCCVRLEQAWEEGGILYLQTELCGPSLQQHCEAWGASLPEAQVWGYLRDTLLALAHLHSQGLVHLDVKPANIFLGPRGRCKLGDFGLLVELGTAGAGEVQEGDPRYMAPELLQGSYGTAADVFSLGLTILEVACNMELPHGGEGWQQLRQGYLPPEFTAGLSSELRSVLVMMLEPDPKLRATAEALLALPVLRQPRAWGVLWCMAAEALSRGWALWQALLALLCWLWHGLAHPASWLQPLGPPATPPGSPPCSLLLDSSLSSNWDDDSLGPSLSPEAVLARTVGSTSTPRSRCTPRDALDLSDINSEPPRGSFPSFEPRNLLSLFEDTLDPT

[16] = molecular target: CSNK2A1 (Homo sapiens, UniProt P68400)
[17] = molecular target: T6, TYK2(JH2domain-pseudokinase) (Homo sapiens, UniProt P29597)
T6 construct: JH2domain-pseudokinase

[18] = molecular target: CASK (Homo sapiens, UniProt O14936)
[19] = molecular target: AKT2 (Homo sapiens, UniProt P31751)
[20] = molecular target: T7, ERK4 (Homo sapiens, UniProt P31152)
T7 construct: gene MAPK4

[21] = molecular target: MAP4K5 (Homo sapiens, UniProt Q9Y4K4)

Structure (SMILES): COc1cc2c(cn1)N(C)C(=O)[C@@H](NC(=O)c1nc3n(n1)[C@H](c1ccccc1)CC3)CC2 [GNE684, (S)-N-((S)-7-methoxy-1-methyl-2-oxo-2,3,4,5-tetrahydro-1H-pyrido[3,4-b]azepin-3-yl)-5-phenyl-6,7-dihydro-5H-pyrrolo[1,2-b][1,2,4]triazole-2-carboxamide]
- remaining binding at 10 µM [1]: 100%
- remaining binding at 10 µM [2]: 97%
- remaining binding at 10 µM [3]: 97%
- remaining binding at 10 µM [4]: 91%
- remaining binding at 10 µM [5]: 94%
- remaining binding at 10 µM [6]: 91%
- remaining binding at 10 µM [7]: 94%
- remaining binding at 10 µM [8]: 100%
- remaining binding at 10 µM [9]: 100%
- remaining binding at 10 µM [10]: 97%
- remaining binding at 10 µM [11]: 100%
- remaining binding at 10 µM [12]: 91%
- remaining binding at 10 µM [13]: 93%
- remaining binding at 10 µM [14]: 75%
- remaining binding at 10 µM [15]: 99%
- remaining binding at 10 µM [16]: 93%
- remaining binding at 10 µM [17]: 100%
- remaining binding at 10 µM [18]: 72%
- remaining binding at 10 µM [19]: 92%
- remaining binding at 10 µM [20]: 96%
- remaining binding at 10 µM [21]: 91%
